Values after ≈ are worked out from the molar mass of the structure shown.
Assays:
[1] = tested on: human liver microsomes and recombinant CYP450s; assay: CYP phenotyping, in vitro metabolism; assay type: in vitro ADME
[2] = plasma exposure in 14-day rat study; assay type: in vivo; conditions: 10 mg/kg/day oral
[3] = Phase 1 mass balance (ADME) study, single oral 20 mg [14C]-paltusotine, healthy male volunteers; assay type: in vivo, human
Protocol: This was a Phase I, open-label, single-dose study with a primary objective to characterize the absorption, distribution, metabolism, excretion, and mass balance of a single oral dose of 20 mg paltusotine containing 3.0 MBq (80 μCi) of [^14C]-labeled paltusotine in healthy male subjects.
Subjects received a single oral dose of 20 mg paltusotine as an oral solution containing 3.0 MBq (80 μCi) of radioactivity on Day 1. For oral dosing, the total volume ingested by the subject, including the study drug (10 mL), the rinse solutions (a total of 100 mL; 2 drug vial rinses with 50 mL of water per rinse), and tap water (130 mL), was 240 mL. The subjects had to ingest all solutions in the upright position within 2 minutes between 8 AM and 11 AM after an overnight fast of at least 10 hours. Fasting continued for a period of 4 hours after oral drug administration. The time of oral dosing administration was recorded, and the empty study drug vials were measured for residual radioactivity.
Blood samples were taken for the analysis of unlabeled paltusotine and [^14C]-paltusotine concentrations, and metabolite profiling. Blood samples for analysis of pharmacokinetic parameters of paltusotine in plasma, quantification of total radioactivity in blood and plasma, and metabolite profiling were collected at predose and 0.25, 0.5, 0.75, 1, 1.5, 2, 3, 4, 8, 12, 24, 48, 72, 120, and 168 hours postdose (and every 48 hours thereafter, if needed, to assess radioactivity).
Urine was collected for the analysis of total radioactivity, for quick counts of total radioactivity, and for metabolite profiling. The subjects were instructed to urinate completely before study drug administration and at the end of each collection interval. A baseline urine sample was collected within 12 hours prior to each study drug administration. Urine was collected for quantification of total radioactivity and metabolite profiling at predose, 3 intervals on Day 1 (at 0-4, 4-8, and 8-24 hours postdose), and every 24 hours thereafter until discharge criteria were met.
All fecal excretions were collected for the analysis of total radioactivity, for quick counts of total radioactivity, and for metabolite profiling. A baseline fecal sample was collected within 48 hours prior to study drug administration and could be collected at home. The baseline sample was taken from the last bowel movement before study drug intake. Feces were collected for quantification of total radioactivity and metabolite profiling at predose and in 24-hour intervals until discharge criteria were met.
Analysis of paltusotine in plasma was performed by Q2 Solutions (IQVIA, Itaca, NY, USA) using a validated liquid chromatography-tandem mass spectrometry (LC-MS/MS) method. The lower limit of quantitation (LLOQ) for paltusotine in plasma was 0.5 ng/mL.
Analysis of total ^14C radioactivity in plasma, whole blood, urine, and feces was performed at the bioanalytic laboratory of PRA Heath Sciences via a validated liquid scintillation counting method. The LLOQ for total reactivity was 3.36 ng-eq/mL in plasma and 5.6 ng-eq/mL in whole blood.
Metabolite profiling of plasma, urine, and feces was performed at WuXi AppTec (Cranbury, NJ, USA). For plasma, samples were pooled by timepoint (0.5, 1, 1.5, 2, 4, 8, 12, and 24 hours postdose) for metabolite profiling. In addition, plasma samples were pooled by participant across timepoints (0-48 hours) using the Hamilton method and analyzed to determine the quantitative profile of radiolabeled components. Prior to radio-profiling, plasma samples were extracted using solid phase extraction.
For urine and feces, samples were pooled by timepoint (0-8, 8-24, and 24-72 hours postdose). Prior to radio-profiling, urine samples were centrifuged to remove solids, and fecal homogenates were extracted with acetonitrile. Plasma and fecal extracts and urine supernatants were subjected to LC separation and fraction collection. […]

[4] = molecular target: human somatostatin receptor 2 (SST2) (Homo sapiens, UniProt P30874); conditions: read-out: EC50, inhibition of cAMP accumulation via SST2 activation; average, in vitro
Chain of human somatostatin receptor 2 (SST2) (P30874 whole entry): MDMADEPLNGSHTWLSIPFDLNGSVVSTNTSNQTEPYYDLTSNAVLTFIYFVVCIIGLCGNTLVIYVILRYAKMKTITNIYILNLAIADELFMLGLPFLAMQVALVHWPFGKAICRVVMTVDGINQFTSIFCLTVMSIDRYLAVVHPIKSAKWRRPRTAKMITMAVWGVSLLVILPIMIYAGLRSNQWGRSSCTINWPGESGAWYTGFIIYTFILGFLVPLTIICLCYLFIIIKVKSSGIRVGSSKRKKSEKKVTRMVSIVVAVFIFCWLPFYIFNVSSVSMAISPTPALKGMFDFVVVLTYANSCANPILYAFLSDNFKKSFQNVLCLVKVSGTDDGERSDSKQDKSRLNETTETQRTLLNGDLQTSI

IGF-1 = assay: suppression of IGF-1 in Beagle dogs, 7 days oral; assay type: in vivo
[5] = SAD/MAD oral administration in healthy adult male subjects; assay type: in vivo, human; conditions: 1.25 to 20 mg (SAD) and 5 to 30 mg (MAD)
Protocol: A dose of 20 mg paltusotine was chosen for the oral dose in the ADME study as a possible therapeutic dose estimated by PD activities of suppression of growth hormone releasing hormone (GHRH) stimulated GH secretion.

plasma GH = assay: suppression of plasma GH after rGHRH challenge in rat; assay type: in vivo
Protocol: (§1) The in vivo pharmacological efficacy of paltusotine has been examined in rat and dog. In the rat, acute efficacy was evaluated by examining the suppression of plasma GH in response to a challenge with rat growth hormone releasing hormone (rGHRH). […] The effects of chronic, oral, 14-day administration of paltusotine were evaluated by measuring the sustained suppression of IGF-1 in the rat.

[6] = tested on: large panel of other known receptors, channels, and enzymes
SST2 = SST2 (Homo sapiens, UniProt P30874); assay: bias of G-protein activation versus β-arrestin activation; assay type: cell-based
Chain of SST2 (P30874 whole entry): as above

plasma IGF-1 = assay: chronic oral 14-day administration, suppression of IGF-1 in rat; assay type: in vivo
Protocol: as §1

[7] = tested on: other human somatostatin receptors
[8] = scaled from paltusotine and excretory metabolites

Compound: N#Cc1cccc(-c2ccc3ncc(-c4cc(F)cc(F)c4)c(N4CCC(N)CC4)c3c2)c1O [paltusotine, 3-[4-(4-amino-1-piperidyl)-3-(3,5-difluorophenyl)-6-quinolyl]-2-hydroxybenzonitrile]
- CYP enzymes catalyzing oxidative metabolism [1]: CYP3A4/5 catalyzes the oxidative metabolism of paltusotine with minor contribution of CYP2D6
- contribution of CYP-mediated metabolism ([1]; in vitro studies): ~16.8%
- AUC(0-t) ([2]; read-out: day-last mean plasma AUC0-24): 975 ng·h/mL
- Cmax ([2]; read-out: day-last mean plasma Cmax): 127 ng/mL
- component in feces ([3]; feces): 39.7 % of the dose
- drug-related components detected in plasma ([3]; human plasma 0-48 h): the only drug-related component detected in human plasma (0-48 h) was paltusotine
- administered radioactivity recovered in the feces ([3]; human, in vivo): 90%
- administered radioactivity recovered in the urine ([3]; human, in vivo): 3.9%
- dose excreted in the feces by metabolic profiling of excreta ([3]; human, in vivo): approximately 84%
- total radioactivity excreted over 120 h ([3]; human, in vivo): 88 % of the administered dose
- glucuronidation pathway share of metabolic clearance [3, 8]: 27.9 % of the dose
- oxidative route share of metabolic clearance [3, 8]: 14.3%
- component in urine ([3]; urine): 1.33 % of dose
- unchanged paltusotine and metabolites excreted in urine ([3]; urine): < 4 % of the total administered radioactivity
- total mean recovery of administered radioactivity ([3]; urine and feces): 94%
- EC50 [4]: 0.25 nM
- oral doses with sustained suppression of IGF-1 (IGF-1): ≥ 6 mg/kg/day
- AUC dose dependence [5]: increased dose-dependently
- EC50 (plasma GH; Rattus norvegicus, po, read-out: plasma EC50 for GH suppression): 0.011 µg/mL (≈ 0.0241 µM)
- doses that significantly and dose dependently suppressed GH relative to vehicle (plasma GH; oral, acute, rGHRH challenge): ≥ 3 mg/kg
- selectivity for SST2 over panel of other receptors, channels, and enzymes [6]: > 2000 fold
- bias for G-protein activation (lowering cAMP) compared to β-arrestin activation (SST2): 75 fold
- dose efficacious in suppressing plasma IGF-1 for up to 14 days (plasma IGF-1): > 10 mg/kg/day
- selectivity over other human somatostatin receptors [7]: > 4000 fold

— patent publication US12208092B2, “Compositions and methods for administering paltusotine to patients with hepatic impairment” (CRINETICS PHARMACEUTICALS, INC., priority 2023, dated 2025)
